Data published in publication PMC11897194 (Nature Communications, 2025).

Molecular target: T1, EfAvs5 (Kosakonia oryzae, UniProt A0AA94GZI5)
T1 sequence (A0AA94GZI5 1-849): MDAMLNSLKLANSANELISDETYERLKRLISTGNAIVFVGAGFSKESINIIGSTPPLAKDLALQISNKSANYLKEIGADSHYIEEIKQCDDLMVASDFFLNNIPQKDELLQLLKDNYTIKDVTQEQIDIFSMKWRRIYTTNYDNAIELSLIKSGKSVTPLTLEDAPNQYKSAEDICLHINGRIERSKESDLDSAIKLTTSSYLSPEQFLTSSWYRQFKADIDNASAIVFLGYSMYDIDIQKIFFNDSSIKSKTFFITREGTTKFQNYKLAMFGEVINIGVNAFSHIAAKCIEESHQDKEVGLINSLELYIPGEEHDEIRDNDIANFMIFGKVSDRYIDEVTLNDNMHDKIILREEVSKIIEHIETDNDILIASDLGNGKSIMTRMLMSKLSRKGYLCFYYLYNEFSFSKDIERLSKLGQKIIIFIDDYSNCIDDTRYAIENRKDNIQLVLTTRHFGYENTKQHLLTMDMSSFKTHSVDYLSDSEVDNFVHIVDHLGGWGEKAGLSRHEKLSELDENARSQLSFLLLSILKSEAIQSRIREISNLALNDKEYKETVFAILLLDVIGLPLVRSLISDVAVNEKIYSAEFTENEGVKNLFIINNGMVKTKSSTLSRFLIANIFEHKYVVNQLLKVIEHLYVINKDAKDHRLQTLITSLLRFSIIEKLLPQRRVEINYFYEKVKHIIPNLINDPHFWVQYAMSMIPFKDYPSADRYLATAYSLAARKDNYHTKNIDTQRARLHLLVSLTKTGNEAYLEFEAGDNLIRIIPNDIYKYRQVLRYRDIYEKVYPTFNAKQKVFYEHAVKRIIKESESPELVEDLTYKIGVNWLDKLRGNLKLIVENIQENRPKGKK
Test: biochemical

Ki: 1.74 ± 0.098 mM
SMILES: Nc1ncnc2c1ncn2[C@@H]1O[C@H](COP(=O)(O)OP(=O)(O)OP(=O)(O)O)[C@@H](O)[C@H]1O [ATP]
